Several values for one entry are separate records, joined by “and”; a condition that tells them apart may be missing. Equal entries are not always repeated.
Tests used:
[1] = Stability analysis (HPLC purity on storage) without BHT at various temperatures; format: physicochemical; details: for Purity (%): without BHT
Method: (§1) To check the purity of the 42-O-(heteroalkoxyalkyl) rapamycin compounds the following condition was followed by using High Performance Liquid Chromatography, Phenomenex Synergi Hydro-RP 80a (250×4.6 ) mm, 4 micron column. The mobile phase was 65:15:20 methanol:acetonitile:water mixture. The detector was set at 276 nm and the flow rate was adjusted to 1.5 mL/min. Column temperature was 40° C. 2.0 μg of 42-O-(heteroalkoxyalkyl) rapamycin compounds was injected onto the column in a volume of 5.0 μL methanol with run time of 50 min.
The purity loss was higher at increased temperature, but there was no apparent change in the impurity profile. Table 2A presents the purity of various 42-O-(heteroalkoxyalkyl) rapamycin compounds at different time intervals and temperature conditions.

[2] = Stability analysis (HPLC purity on storage) with various concentrations of BHT at 40° C.; format: physicochemical; details: sealed container
Method: as §1
The inventors have also conducted the stability study of various 42-O-(heteroalkoxyalkyl) rapamycin compounds as mentioned above using various BHT concentrations. The study was conducted at 40° C. temperature in sealed container for 8 weeks.
42-O-(heteroalkoxyalkyl) rapamycin compounds obtained as per procedure described in Example 1 are respectively added with anti-oxidant, namely Butylated Hydroxytoluene (or BHT), at a concentration of 0.1%, 0.2%, 0.5%, and 1.0% (w/w) based on 100% (w/w) of 42-O-(heteroalkoxyalkyl) rapamycin compounds in sealed container to study the stability at 40° C. temperature. […] The purity data with the addition of different amounts of anti-oxidant as added to 42-O-(tetrahydrofuran-3-yl) rapamycin compound, 42-O-(oxetan-3-yl) rapamycin compound and 42-O-(tetrahydropyran-3-yl) rapamycin compound checked at different time intervals are summarized in Table 2B as below mentioned.

[3] = tested on: rabbit illiac artery smooth muscle cell cultures (RbIASMCs); experiment: In-vitro anti-proliferative potency, BrdU assay, rabbit smooth muscle cells; format: cell-based; details: BrdU incorporation, over 5 orders of magnitude concentration, compared with rapamycin
From the text: (§2) In-vitro assessment of relative anti-proliferative effect of novel mTOR inhibitors 42-O-(oxetan-3-yl) rapamycin compound and 42-O-(tetrahydrofuran-3-yl) rapamycin compound with rapamycin was done on human and rabbit smooth muscle cell culture models. In which, human aorta and rabbit illiac artery smooth muscle cell cultures were subjected to increasing doses of 42-O-(oxetan-3-yl) rapamycin compound 42-O-(tetrahydrofuran-3-yl) rapamycin compound and rapamycin over 5 orders of magnitude concentration in the cell culture medium. The ability of the cell culture to reproduce was assessed after drug exposure by addition of a BromodeoxyUridine (BrdU) coloured reagent which causes a colour change in the surviving cells. The extent of colour development was quantified at 450 nm wavelength using a spectrophotometer microplate reader (BMG Labtech, FLUOstar OPTIMA). […] On the contrary, lower OD values reflect less incorporation on BrdU and a shift towards cell inhibition. Growth inhibition was calculated by subtracting positive control OD values, which represent 100% uninhibited growth.

[4] = tested on: L-929 (ATCC cell lines CCL-1, NCTC clone 929) Mus musculus mouse fibroblast cells; experiment: In-vitro cytotoxicity test by extraction method; format: cell-based; details: extract in contact with L-929 cells for 48 hours
Method: In-vitro assessment was done to check the cytotoxic or necrotic potential of the 42-O-(tetrahydrofuran-3-yl) rapamycin and 42-O-(oxetan-3-yl) rapamycin compounds by extraction method. In this study extracts of test substance were kept in contact with a multiple culture of L-929 (ATCC cell lines CCL-1, NCTC clone 929) Mus musculus mouse fibroblast cells for 48 hours. The cells were examined microscopically to assess the changes for its general morphology, vacuolization, detachment, cell lysis and membrane integrity.

[5] = tested on: human aorta smooth muscle cell cultures (hAoSMCs); experiment: In-vitro anti-proliferative potency, BrdU assay, human smooth muscle cells; format: cell-based; details: BrdU incorporation, over 5 orders of magnitude concentration, compared with rapamycin
From the text: as §2

rabbit blood [6] = experiment: Haemocompatibility test (thrombosis, coagulation, platelet count, leucocyte count); format: cell-based
Method: Haemocompatibility test is conducted to evaluate biological safety of the blood contacting 42-O-([…]) rapamycin and 42-O-(oxetan-3-yl) rapamycin compounds for the medical device. The interaction of test substance with rabbit blood was checked for thrombosis, coagulation, platelet count and leucocyte count.

rabbit blood [7] = experiment: In-vitro haemolysis test; format: cell-based; details: for Haemolytic Index, Mean ± S. D.: mean of three test extracts, rabbit blood, 4 hrs
Method: Haemolysis test was conducted on rabbit blood by in-vitro method to check the haemolytic effect of 42-O-(tetrahydrofuran-3-yl) rapamycin (Merilimus-1) compound and 42-O-(oxetan-3-yl) rapamycin (Merilimus-2) compound. In this study the extracts of the test substances in triplicate were kept in contact with rabbit blood and incubated for 4 hrs. The concentration of plasma haemoglobin liberated in supernatant was calculated by comparing with absorbance of the standard solution in a spectrophotometer at 540 nm.

[8] = test group, individual rabbits No. 1-3

## COC1CC(C[C@H](C)[C@@H]2CC(=O)[C@H](C)/C=C(\C)C(O)[C@@H](OC)C(=O)[C@H](C)C[C@H](C)/C=C/C=C/C=C(\C)[C@@H](OC)C[C@@H]3CC[C@@H](C)[C@@](O)(O3)C(=O)C(=O)N3CCCC[C@H]3C(=O)O2)CCC1OC1CCOC1 (some centres unmarked) [Merilimus-1, 42-O-(tetrahydrofuran-3-yl) rapamycin]
[1]; purified compounds without anti-oxidant
  Stability (in words): more thermally stable
[1]; 5° C. (sealed), 00 weeks after synthesis
  Purity (%): 98.6%
[1]; 5° C. (sealed), 02 weeks after synthesis
  Purity (%): 97.8%
[1]; 5° C. (sealed), 04 weeks after synthesis
  Purity (%): 97.0%
[1]; 5° C. (sealed), 08 weeks after synthesis
  Purity (%): 96.7%
[1]; 5° C. (sealed), 12 weeks after synthesis
  Purity (%): 96.3%
[1]; 25° C. (sealed), 00 weeks after synthesis
  Purity (%): 98.7%
[1]; 25° C. (sealed), 02 weeks after synthesis
  Purity (%): 97.6%
[1]; 25° C. (sealed), 04 weeks after synthesis
  Purity (%): 96.9%
[1]; 25° C. (sealed), 08 weeks after synthesis
  Purity (%): 96.7%
[1]; 25° C. (sealed), 12 weeks after synthesis
  Purity (%): 94.1%
[1]; 25° C. (unsealed), 00 weeks after synthesis
  Purity (%): 98.4%
[1]; 25° C. (unsealed), 02 weeks after synthesis
  Purity (%): 97.1%
[1]; 25° C. (unsealed), 04 weeks after synthesis
  Purity (%): 96.7%
[1]; 25° C. (unsealed), 08 weeks after synthesis
  Purity (%): 95.2%
[1]; 25° C. (unsealed), 12 weeks after synthesis
  Purity (%): 93.6%
[1]; 40° C. (sealed), 00 weeks after synthesis
  Purity (%): 98.6%
[1]; 40° C. (sealed), 02 weeks after synthesis
  Purity (%): 96.7%
[1]; 40° C. (sealed), 04 weeks after synthesis
  Purity (%): 96.3%
[1]; 40° C. (sealed), 08 weeks after synthesis
  Purity (%): 94.7%
[1]; 40° C. (sealed), 12 weeks after synthesis
  Purity (%): 93.5%
[2]; BHT 0.0% (w/w), 0 week
  Purity (%): 98.6%
[2]; BHT 0.0% (w/w), 2 weeks
  Purity (%): 96.7%
[2]; BHT 0.0% (w/w), 4 weeks
  Purity (%): 96.3%
[2]; BHT 0.0% (w/w), 8 weeks
  Purity (%): 94.7%
[2]; BHT 0.1% (w/w), 0 week
  Purity (%): 98.6%
[2]; BHT 0.1% (w/w), 2 weeks
  Purity (%): 98.5%
[2]; BHT 0.1% (w/w), 4 weeks
  Purity (%): 98.5%
[2]; BHT 0.1% (w/w), 8 weeks
  Purity (%): 98.4%
[2]; BHT 0.2% (w/w), 0 week
  Purity (%): 98.5%
[2]; BHT 0.2% (w/w), 2 weeks
  Purity (%): 98.5%
[2]; BHT 0.2% (w/w), 4 weeks
  Purity (%): 98.5%
[2]; BHT 0.2% (w/w), 8 weeks
  Purity (%): 98.4%
[2]; BHT 0.5% (w/w), 0 week
  Purity (%): 98.5%
[2]; BHT 0.5% (w/w), 2 weeks
  Purity (%): 98.4%
[2]; BHT 0.5% (w/w), 4 weeks
  Purity (%): 98.4%
[2]; BHT 0.5% (w/w), 8 weeks
  Purity (%): 98.3%
[2]; BHT 1.0% (w/w), 0 week
  Purity (%): 98.5%
[2]; BHT 1.0% (w/w), 2 weeks
  Purity (%): 98.4%
[2]; BHT 1.0% (w/w), 4 weeks
  Purity (%): 98.4%
[2]; BHT 1.0% (w/w), 8 weeks
  Purity (%): 98.3%
[2]; with various concentrations of BHT (concentration not given)
  Purity after eight-weeks of storage: 98.3%
[3]
  Growth suppression of smooth muscle cells (in words): more effectively inhibited growth of smooth muscle cells than rapamycin
[4]
  Toxic effect on cells (in words): did not reveal any toxic effect on cells
[5]
  Growth suppression of smooth muscle cells (in words): more effectively inhibited growth of smooth muscle cells than rapamycin
Rabbit blood [6]; all haematological findings compared to control
  Haemocompatibility (in words): haemocompatible
Rabbit blood [6]; [8]
  Coagulation (PTT in sec.): 36 sec. (2×) and 39 sec.
  Differential leucocyte count: Basophile %: 00%
  Differential leucocyte count: Eosinophil %: 01%
  Differential leucocyte count: Lymphocyte %: 43% and 50% (2×)
  Differential leucocyte count: Monocyte %: 01% (2×) and 02%
  Differential leucocyte count: Neutrophil %: 55% and 47% and 48%
  Distribution of cells: Platelets: Normal
  Distribution of cells: RBC: Normal
  Distribution of cells: WBC: Normal
  Leucocyte count: 7.3 Thousand/cmm and 6.8 Thousand/cmm and 7.4 Thousand/cmm
  Platelet count: 4.9 lakhs/cmm and 4.6 lakhs/cmm and 4.5 lakhs/cmm
  Thrombosis: Nil
Rabbit blood [7]; individual test extracts 1-3, rabbit blood, incubated 4 hrs, = Haemoglobin released/Haemoglobin present × 100
  Haemolytic Index: 1.4 and 1.7 and 1.9
Rabbit blood [7]
  Haemolytic Index, Mean ± S. D.: 1.7 ± 0.02
Rabbit blood [7]; listed as 42-O-(tetrahydrofuran-3-yl) rapamycin
  Haemolytic Index, Mean ± S. D.: 1.7
Rabbit blood [7]; on the basis of haemolytic index
  Haemolytic nature (in words): non-haemolytic
